The EC50 is the concentration giving half of the maximal effect. Low readings indicate higher potency in that assay, high ones lower potency in that assay.

This experiment addresses T1, human TPO receptor (hTPOR) (Homo sapiens, UniProt P40238).
T1 construct: expressed in transfected cells; host or cells: BaF-B03 (murine IL-3 dependent cell line)
T1 sequence (P40238 26-635): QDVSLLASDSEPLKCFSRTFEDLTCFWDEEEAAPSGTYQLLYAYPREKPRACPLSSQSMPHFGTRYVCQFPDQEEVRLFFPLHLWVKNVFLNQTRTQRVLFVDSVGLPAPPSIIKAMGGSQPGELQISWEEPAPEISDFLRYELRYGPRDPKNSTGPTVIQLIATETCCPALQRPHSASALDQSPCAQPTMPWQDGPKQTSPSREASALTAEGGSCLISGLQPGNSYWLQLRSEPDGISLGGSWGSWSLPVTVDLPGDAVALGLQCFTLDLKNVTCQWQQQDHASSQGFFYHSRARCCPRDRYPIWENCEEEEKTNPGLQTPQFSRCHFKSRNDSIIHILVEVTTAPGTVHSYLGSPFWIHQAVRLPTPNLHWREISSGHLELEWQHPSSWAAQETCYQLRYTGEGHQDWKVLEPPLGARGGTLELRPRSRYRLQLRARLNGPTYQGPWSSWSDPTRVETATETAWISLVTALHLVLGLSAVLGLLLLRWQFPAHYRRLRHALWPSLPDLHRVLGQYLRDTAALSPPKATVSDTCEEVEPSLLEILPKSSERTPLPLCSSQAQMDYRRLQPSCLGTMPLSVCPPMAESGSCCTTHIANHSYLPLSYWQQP
In words: Proliferation of TPO dependent BaF/hTPOR cells, WST-1, thrombopoietic activity ED50 (Test Example 3). Type of experiment: cell-based. Particulars: 20 h incubation then WST-1 4 h, absorbance at 450 nm. The source says: FIG. 2: The chart represents proliferation of the human TPO dependent cells bearing human TPO receptors by the present invention compound, wherein the x-axis is concentration of the present invention compound, and the y-axis is the absorbance as an indicator of cell proliferation. Open circles indicate a response of human TPO, and closed circles indicate a response of the compound (B-1).
The TPO dependent BaF/hTPOR cell line which was established by introducing human TPO receptor (hTPOR) into BaF-B03 cells according to Collins et al (J. Cell. Physiol., 137:293-298 (1988)) was used to test the thrombopoietic activity of the present compound. The DNA sequences and encoded peptide sequences for human hTPOR have been described by Vigon et al (Proc. Natl. Acad. Sci. USA, 89:5640-5644 (1992)). TPO dose not have any ability to support proliferation of interleukin-3 dependent parental cell line BaF-B03. BAF/hTPOR cells were maintained in RPMI medium and WEHI-3B conditioned medium as a source of murine interleukin-3 (IL-3). These cells were washed and resuspended in RPMI medium without a source of murine IL-3 and seeded into each well of 96-well microtiter plates at a density of 5×10^4 cells per well in the absence or presence of various concentration of hTPO or the present compound. After incubation at 37° C. for 20 hours in the 5% CO2 incubator, 10% WST-1 reagent (Takara Biomedicals, Japan) was added to each wells and the cells were further incubated for 4 hours. Effect of the present compound on the growth of BAF/mTPOR cell line which was established by introducing murine TPO receptor (mTPOR) into BAF-B03 cells is shown in FIG. 3. Table 8 exemplifies the ED50 for tested compounds of the present invention, wherein the ED50 is the half concentration of the concentration showing the maximum thrombopoietic activity.
(Formazan colour is commonly taken as a measure of viable cells.)
Turning to `O=C(O)/C(Cl)=C/c1ccc(C(=O)Nc2nc(-c3cc(F)c(F)cc3F)cs2)cc1` [Compound A-62], the midpoint of the response, the EC50, lay at 101 nM. Regarding `C/C(=C\c1ccc(C(=O)Nc2nc(-c3ccc(Cl)c(Cl)c3)cs2)cc1)C(=O)NC1CCCC1` [Compound B-38], the EC50 came out at 239 nM.

`CC(=Cc1ccc(C(=O)Nc2nc(-c3ccc(Cl)c(Cl)c3)cs2)cc1)c1ncc[nH]1` [Compound D-1] returned an EC50 of 276 nM.

Molecule `CC(=Cc1ccc(C(=O)Nc2nc(-c3ccc(Cl)c(Cl)c3)cs2)cc1)C(=O)N(C)C` [Compound B-5] came in with an EC50 of 123 nM. In the case of `C/C(=C\c1ccc(C(=O)Nc2nc(-c3ccc(Cl)c(Cl)c3)cs2)cc1)C(=O)Nc1nccs1` [Compound B-11], the EC50 is 236 nM.

`CC(C)Cc1ccc(-c2csc(NC(=O)c3ccc(/C=C(\Cl)C(=O)O)cc3)n2)cc1` [Compound A-64] gave an EC50 of 204 nM. The result for `COCCNC(=O)/C(C)=C/c1ccc(C(=O)Nc2nc(-c3ccc(Cl)c(Cl)c3)cs2)cc1` [Compound B-42] reads 236 nM.

For the molecule `O=C(O)/C(Cl)=C/c1ccc(C(=O)Nc2nc(-c3cccc(OC(F)(F)F)c3)cs2)cc1` [Compound A-32], the EC50 is 40 nM. `CCOC(=O)/C(Cl)=C/c1ccc(C(=O)Nc2nc(-c3cccc(OC(F)(F)F)c3)cs2)cc1` [Compound A-31]: the midpoint of the response, the EC50, lay at 56 nM. `C/C(=C\c1ccc(C(=O)Nc2nc(-c3ccc(Cl)c(Cl)c3)cs2)cc1)C(=O)NCc1ccccc1` [Compound B-9] returned an EC50 of 82 nM. Next, `C/C(=C\c1ccc(C(=O)Nc2nc(-c3ccc(Cl)c(Cl)c3)cs2)cc1)C(=O)NC(C)c1ccccc1` (centres unmarked) [Compound B-33]: 372 nM; `CNC(=O)/C(C)=C/c1ccc(C(=O)Nc2nc(-c3ccc(F)c(F)c3)cs2)cc1` [Compound B-26]: 346 nM. Take `O=C(O)/C(Cl)=C/c1ccc(C(=O)Nc2nc(-c3ccc4c(c3)CCO4)cs2)cc1` [Compound A-74]: the midpoint of the response, the EC50, lay at 472 nM. Next, `O=C(O)/C=C/c1ccc(C(=O)Nc2nc(-c3ccc(Cl)c(Cl)c3)cs2)cc1` [Compound A-4]: 124 nM.

The molecule `C/C(=C\c1ccc(C(=O)Nc2nc(-c3ccc(Cl)c(Cl)c3)cs2)cc1)C(=O)NC[Si](C)(C)C` [Compound B-34] registered an EC50 of 398 nM. As to `CCOC(=O)/C(C)=C/c1ccc(C(=O)Nc2nc(-c3cccc(OC(F)(F)F)c3)cs2)cc1` [Compound A-19], the EC50 was determined as 170 nM. The result for `Cc1sc(NC(=O)c2ccc(/C=C(\Cl)C(=O)O)cc2)nc1-c1cccc(C(F)(F)F)c1` [Compound J-14] reads 36 nM; that for `O=C(O)/C(F)=C/c1ccc(C(=O)Nc2nc(-c3cccc(C(F)(F)F)c3)cs2)cc1` [Compound A-44], 227 nM.

With `C/C(=C\c1ccc(C(=O)Nc2nc(-c3ccc(Cl)c(Cl)c3)cs2)cc1)C(=O)NCc1ccco1` [Compound B-16], the EC50 amounted to 182 nM. With `COC(=O)C#Cc1ccc(C(=O)Nc2nc(-c3ccc(Cl)c(Cl)c3)cs2)cc1OC` [Compound L-3], the response was half-maximal at 321 nM (EC50). Regarding `O=C(O)/C(Cl)=C/c1ccc(C(=O)Nc2nc(-c3ccc(F)c(-c4ccccc4)c3F)cs2)cc1` [Compound A-89], the EC50 amounted to 72 nM.

As to `O=C(O)/C(Cl)=C/c1ccc(C(=O)Nc2nc(-c3cccc(F)c3F)cs2)cc1` [Compound A-72], the EC50 stood at 119 nM. Consider `CC(=Cc1ccc(C(=O)Nc2nc(-c3ccc(Cl)c(Cl)c3)cs2)cc1)S(=O)(=O)N(C)C` [Compound F-1], for which the midpoint of the response, the EC50, lay at 174 nM. Next, `CC(c1ccc(C(=O)Nc2nc(-c3ccc(Cl)c(Cl)c3)cs2)cc1)C(Cl)C(=O)O` (centres unmarked) [Compound G-8]: 360 nM; `C/C(=C\c1ccc(C(=O)Nc2nc(-c3ccc(Cl)c(Cl)c3)cs2)cc1)C(=O)NCCN(C)C` [Compound B-27]: 707 nM; `O=C(O)/C(Cl)=C/c1ccc(C(=O)Nc2nc(-c3cccc(-c4ccc(F)cc4)c3F)cs2)cc1` [Compound A-88]: 28 nM. Molecule `O=C(O)/C(Cl)=C/c1ccc(C(=O)Nc2nc(-c3cccc(C(F)(F)F)c3F)cs2)cc1` [Compound A-57] displayed an EC50 of 19 nM. The result for `O=C(Nc1nc(-c2ccc(Cl)c(Cl)c2)cs1)c1ccc(CC(F)C(=O)O)cc1` (centres unmarked) [Compound G-6] reads 370 nM. Next, `O=C(O)/C(Cl)=C/c1ccc(C(=O)Nc2nc(-c3c(F)cccc3F)cs2)cc1` [Compound A-51]: 568 nM; `CCOC(=O)/C(C)=C/c1ccc(C(=O)Nc2nc(-c3ccc(C(F)(F)F)cc3)cs2)cc1` [Compound A-25]: 150 nM. Next, `O=C(Nc1nc(-c2ccc(Cl)c(Cl)c2)cs1)c1ccc(CC(Cl)C(=O)O)cc1` (centres unmarked) [Compound G-4]: 240 nM.

Molecule `COC(=O)C#Cc1ccc(C(=O)Nc2nc(-c3ccc(Cl)c(Cl)c3)cs2)cc1` [Compound L-1] came in with an EC50 of 208 nM. Consider `Cc1ccc(-c2csc(NC(=O)c3ccc(/C=C(\Cl)C(=O)O)cc3)n2)c(F)c1` [Compound A-70], for which the EC50 is 89 nM. Next, `CCOC(=O)/C(Cl)=C/c1ccc(C(=O)Nc2nc(-c3ccc(F)cc3)cs2)cc1` [Compound A-37]: 96 nM; `COc1ccc(-c2csc(NC(=O)c3ccc(/C=C(\Cl)C(=O)O)cc3)n2)c(F)c1` [Compound A-61]: 207 nM. Consider `O=C(O)/C(Cl)=C/c1ccc(C(=O)Nc2nc(-c3ccc(F)c(F)c3)cs2)cc1` [Compound A-36], for which a half-maximal effect (EC50) was put at 95 nM. The result for `CCNC(=O)C(C)=Cc1ccc(C(=O)Nc2nc(-c3ccc(Cl)c(Cl)c3)cs2)cc1` [Compound B-6] reads 84 nM; that for `O=C(O)/C(Cl)=C/c1ccc(C(=O)Nc2nc(-c3ccc(OC(F)(F)F)cc3)cs2)cc1` [Compound A-76], 205 nM. Next, `C/C(=C\c1ccc(C(=O)Nc2nc(-c3cccc(C(F)(F)F)c3)cs2)cc1)C(=O)O` [Compound A-28]: 99 nM; `CCOC(=O)C(=Cc1ccc(C(=O)Nc2nc(-c3ccc(Cl)c(Cl)c3)cs2)cc1)CC` [Compound A-5]: 984 nM. Turning to `CC(=Cc1ccc(C(=O)Nc2nc(-c3ccc(Cl)c(Cl)c3)cs2)cc1)S(=O)(=O)NC(C)(C)C` [Compound F-2], the EC50 came out at 144 nM. The result for `CCCCc1cccc(-c2csc(NC(=O)c3ccc(/C=C(\Cl)C(=O)O)cc3)n2)c1` [Compound A-55] reads 37 nM; that for `C/C(=C\c1ccc(C(=O)Nc2nc(-c3ccc(Cl)c(Cl)c3)cs2)cc1)C(=O)NC1CC1` [Compound B-36], 163 nM; that for `CCOC(=O)/C=C/c1ccc(C(=O)Nc2nc(-c3ccc(Cl)c(Cl)c3)cs2)cc1` [Compound A-3], 218 nM.

`O=C(O)/C(F)=C/c1ccc(C(=O)Nc2nc(-c3ccc(F)cc3)cs2)cc1` [Compound A-68] gave an EC50 of 222 nM. Next, `CC/C(=C\c1ccc(C(=O)Nc2nc(-c3ccc(Cl)c(Cl)c3)cs2)cc1)C(N)=O` [Compound B-17]: 244 nM; `O=C(O)/C(Cl)=C/c1ccc(C(=O)Nc2nc(-c3ccc(C(F)(F)F)cc3)cs2)cc1` [Compound A-40]: 47 nM; `C/C(=C\c1ccc(C(=O)Nc2nc(-c3ccc(Cl)c(Cl)c3)cs2)cc1)C(=O)Nc1cccnc1` [Compound B-12]: 207 nM. Regarding `Cc1cccc(-c2csc(NC(=O)c3ccc(/C=C(\Cl)C(=O)O)cc3)n2)c1F` [Compound A-83], the EC50 was 77 nM. Next, `C/C(=C\c1ccc(C(=O)Nc2nc(-c3ccc(Cl)c(Cl)c3)cs2)cc1)C(=O)NN(C)C` [Compound B-29]: 181 nM. `CC/C(=C\c1ccc(C(=O)Nc2nc(-c3ccc(Cl)c(Cl)c3)cs2)cc1)C(=O)NCc1ccccc1` [Compound B-20] gave an EC50 of 425 nM.

`O=C(O)/C(Cl)=C/c1ccc(C(=O)Nc2nc(-c3ccc(Cl)c(Cl)c3)cs2)cc1` [Compound A-14] showed an EC50 of 17 nM. `CSc1ccc(-c2csc(NC(=O)c3ccc(/C=C(\Cl)C(=O)O)cc3)n2)cc1` [Compound A-78]: the EC50 was found to be 408 nM.

Values taken from US20100022542A1, “COMPOUNDS EXHIBITING THROMBOPOIETIN RECEPTOR AGONISM” (Shionogi & Co., Ltd., priority 2000, published 2010).
